Results taken from patent US12383624B2, “Cargo delivery system and composition comprising the same” (SEOUL NATIONAL UNIVERSITY R&DB FOUNDATION, priority 2018, dated 2025).
Each block holds one compound with its values, some of them ahead of it.

How the values were obtained:
RIPK2 = target: T1, RIPK2 (Homo sapiens, UniProt O43353); test: target protein degradation by immunoblotting (Experimental Example 6); type: cell-based; details: THP-1 cell line, 24 hours
T1 construct: as cell lines primarily expressing the target protein; endogenous in cells; host or cells: THP-1
T1 sequence (O43353 whole entry): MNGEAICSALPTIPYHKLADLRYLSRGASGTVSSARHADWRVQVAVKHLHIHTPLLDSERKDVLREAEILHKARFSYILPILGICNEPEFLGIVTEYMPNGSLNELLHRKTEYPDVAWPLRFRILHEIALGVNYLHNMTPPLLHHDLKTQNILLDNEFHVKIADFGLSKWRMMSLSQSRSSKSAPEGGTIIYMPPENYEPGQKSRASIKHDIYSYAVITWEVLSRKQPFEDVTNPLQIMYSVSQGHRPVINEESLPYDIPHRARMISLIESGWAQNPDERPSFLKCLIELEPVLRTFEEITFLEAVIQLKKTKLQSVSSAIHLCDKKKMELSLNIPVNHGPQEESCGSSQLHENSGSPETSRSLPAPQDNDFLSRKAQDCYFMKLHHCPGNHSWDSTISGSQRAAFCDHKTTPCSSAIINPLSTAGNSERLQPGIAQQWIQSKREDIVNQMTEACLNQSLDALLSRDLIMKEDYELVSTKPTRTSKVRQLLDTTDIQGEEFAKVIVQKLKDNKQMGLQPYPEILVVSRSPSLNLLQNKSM
Protocol: (§1) In order to evaluate the target proteion degradation efficacy by Examples 14 to 33 according the disclosure, the following experiment was conducted.
(§2) First, as cell lines primarily expressing the target protein, Human kidney-derived cancer cells, HEK293T (ATCC, CRL-3216), human prostate-derived cancer cells, LNcap (Korean Cell Line Bank, Korean Cell Line Research Foundation, KCLB No. 80018), mouse embryonic fibroblast, MEF (ATCC, SCRC-1008), human cervical cancer cells, HeLa (Korean Cell Line Bank, Korean Cell Line Research Foundation, KCLB No. 10002), human blood-derived cells, K562 (Korean Cell Line Bank, Korean Cell Line Research Foundation, KCLB No. 10243), human blood-derived cells, THP-1 (Korean Cell Line Bank, Korean Cell Line Research Foundation, KCLB No. 40202), human lung-derived cancer cells, A549 (Korean Cell Line Bank, Korean Cell Line Research Foundation, KCLB No. 10185), human breast-derived cancer cells, MCF7 (Korean Cell Line Bank, Korean Cell Line Research Foundation, KCLB No. 30022), human neuroblastoma, SH-SY5Y cell lines (Korean Cell Line Bank, Korean Cell Line Research Foundation, KCLB No. 22266), human pancreatic cancer cells, PANC-1 (Korean Cell Line Bank, Korean Cell Line Research Foundation, KCLB No. 21469) were cultured, respectively, in an incubator maintained at 5% carbon dioxide, using DMEM containing 10% FBS and 1% streptomycin/penicillin, RPMI1640, or MEM medium, and then the respective cells were dispensed in 12-well plate. Additional incubation was performed for 24 hours to ensure that each cell completely fixed to the surface of the plate.
(§3) In order to confirm whether Compounds A to W of Examples 14 to 33 degrade the target protein respectively, the cultured cells were treated with the compound of each example for 24 hours and then collected.
(§4) In this case, HEK293T, which is human kidney-derived cancer cells, LNcap, which is human prostate-derived cancer cells, and MEF cell line, which is mouse embryonic fibroblasts, were treated with Example 14 (Compound A). HEK293T, which is human kidney-derived cancer cells, was treated with Example 15 (Compound B). HEK293T cell line, which is human kidney-derived cancer cells, and HeLa cell line, which is cervical-derived cancer cells, were treated with Example 16 (Compound C). HEK293T cell line, which is human kidney-derived cancer cells, was treated with Example 17 (Compound D). K562 cell line, which is human blood-derived cells, was treated with Example 18 (Compound E). HEK293T cell line, which is human kidney-derived cancer cells, was treated with Example 19 (Compound F). THP-1 cell line, which is human blood-derived cells, was treated with Example 20 (Compound G). A549 cell line, which is human lung-derived cancer cells, was treated with Example 21 (Compound H). A549 cell line, which is human lung-derived cancer cells, was treated with Example 22 (Compound I). MCF7 cell line, which is human breast-derived cancer cells, was treated with Example 23 (Compound J). HEK293T cell line, which is […], was treated with Example 24 (Compound L). SH-SY5Y, which is human neuroblastoma, and HeLa cell line, which is cervical-derived cancer cells, were treated with Example 25 (Compound M). THP-1 cell line, which is human blood-derived cells, was treated with Example 26 (Compound P). SH-SY5Y, which is human neuroblastoma, and HeLa cell line, which is cervical-derived cancer cells, were treated with Example 27 (Compound Q). SH-SY5Y, which is human neuroblastoma, and HeLa cell line, which is cervical-derived cancer cells, were treated with Example 28 (Compound R). HeLa cell line, a human cervical-derived cancer cell, was treated with Example 29 (Compound S). SH-SY5Y cell line, which is human neuroblastoma, was treated with Example 30 (Compound T). SH-SY5Y cell line, which is human neuroblastoma, was treated with Example 31 (Compound U). PANC-1 cell line, which is human pancreatic-derived cancer cells, was treated with Example 32 (Compound V). […]

Cyclin D1 = test: as above; type: cell-based, human; details: A549 cell line, 24 hours
Protocol: as §1, §2, §3, §4

STAT3 = target: T2, STAT3 (Homo sapiens, UniProt P40763); test: as above; type: cell-based; details: A549 cell line, 24 hours
T2 construct: as cell lines primarily expressing the target protein; endogenous in cells; host or cells: A549
T2 sequence (P40763 whole entry): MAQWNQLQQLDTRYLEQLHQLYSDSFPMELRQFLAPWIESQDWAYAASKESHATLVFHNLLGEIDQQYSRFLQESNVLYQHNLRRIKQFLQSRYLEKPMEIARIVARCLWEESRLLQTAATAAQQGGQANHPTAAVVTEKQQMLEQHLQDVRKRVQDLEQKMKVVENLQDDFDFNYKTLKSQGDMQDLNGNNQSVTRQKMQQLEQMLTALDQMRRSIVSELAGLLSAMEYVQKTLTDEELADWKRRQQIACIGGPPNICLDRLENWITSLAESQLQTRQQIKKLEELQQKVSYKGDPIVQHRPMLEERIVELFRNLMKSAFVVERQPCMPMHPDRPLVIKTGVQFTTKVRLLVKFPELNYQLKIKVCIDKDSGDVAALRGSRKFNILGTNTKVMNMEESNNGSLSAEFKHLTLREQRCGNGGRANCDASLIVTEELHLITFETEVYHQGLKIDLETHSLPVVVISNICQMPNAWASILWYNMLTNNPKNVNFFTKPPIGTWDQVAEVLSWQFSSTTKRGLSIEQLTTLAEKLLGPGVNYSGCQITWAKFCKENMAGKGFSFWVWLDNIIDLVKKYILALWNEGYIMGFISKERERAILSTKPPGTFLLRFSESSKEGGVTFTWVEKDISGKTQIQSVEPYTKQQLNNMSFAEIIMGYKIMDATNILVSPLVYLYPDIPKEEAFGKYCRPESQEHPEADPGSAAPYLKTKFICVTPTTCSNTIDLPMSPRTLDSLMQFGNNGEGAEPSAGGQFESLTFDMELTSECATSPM
Protocol: as §1, §2, §3, §4

p-STAT3 = target: T3, p-STAT3 (Homo sapiens, UniProt P40763); test: as above; type: cell-based; details: A549 cell line, 24 hours
T3 construct: endogenous in cells; host or cells: A549
T3 sequence (P40763 whole entry): as above
Protocol: as §1, §2, §3, §4

Tau = test: as above; type: cell-based, human; details: 24 hours
Protocol: as §1, §2, §3, §4

Desmin Mut(L385P) = target: T4, Desmin Mut(L385P) (Homo sapiens, UniProt P17661, L385P); test: as above; type: cell-based; details: 24 hours
T4 construct: expressed in transfected cells; host or cells: HeLa (Compound S); SH-SY5Y or HeLa (Compounds M, Q, R)
T4 sequence (P17661 whole entry L385P): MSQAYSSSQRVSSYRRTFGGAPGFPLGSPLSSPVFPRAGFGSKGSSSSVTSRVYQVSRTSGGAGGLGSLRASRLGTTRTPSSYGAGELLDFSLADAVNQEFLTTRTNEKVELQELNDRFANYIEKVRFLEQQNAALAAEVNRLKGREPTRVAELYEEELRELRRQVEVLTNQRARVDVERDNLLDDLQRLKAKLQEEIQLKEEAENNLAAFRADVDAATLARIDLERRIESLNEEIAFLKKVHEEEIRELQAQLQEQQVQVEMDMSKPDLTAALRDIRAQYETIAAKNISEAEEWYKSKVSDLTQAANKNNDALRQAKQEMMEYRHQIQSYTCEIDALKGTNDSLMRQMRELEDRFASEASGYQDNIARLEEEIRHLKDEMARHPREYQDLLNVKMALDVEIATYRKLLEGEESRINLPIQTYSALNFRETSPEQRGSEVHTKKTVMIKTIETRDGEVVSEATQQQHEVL
Protocol: as §1, §2, §3, §4

α-synuclein(A53T) = target: T5, α-synuclein(A53T) (Homo sapiens, UniProt P37840, A53T); test: as above; type: cell-based; details: 24 hours
T5 construct: expressed in transfected cells; host or cells: SH-SY5Y (Compound U); SH-SY5Y or HeLa (Compound M)
Protocol: as §1, §2, §3, §4

p62 protein = target: T6, p62 protein (Homo sapiens, UniProt Q13501); test: oligomerization activity of p62 protein in cultured cells by immunoblotting; type: cell-based; set-up: dose or concentration left out as unconfirmed; details: HEK293 cell line, 2 hr, unlike DMSO control
T6 construct: endogenous in cells; host or cells: HEK293
T6 sequence (Q13501 whole entry): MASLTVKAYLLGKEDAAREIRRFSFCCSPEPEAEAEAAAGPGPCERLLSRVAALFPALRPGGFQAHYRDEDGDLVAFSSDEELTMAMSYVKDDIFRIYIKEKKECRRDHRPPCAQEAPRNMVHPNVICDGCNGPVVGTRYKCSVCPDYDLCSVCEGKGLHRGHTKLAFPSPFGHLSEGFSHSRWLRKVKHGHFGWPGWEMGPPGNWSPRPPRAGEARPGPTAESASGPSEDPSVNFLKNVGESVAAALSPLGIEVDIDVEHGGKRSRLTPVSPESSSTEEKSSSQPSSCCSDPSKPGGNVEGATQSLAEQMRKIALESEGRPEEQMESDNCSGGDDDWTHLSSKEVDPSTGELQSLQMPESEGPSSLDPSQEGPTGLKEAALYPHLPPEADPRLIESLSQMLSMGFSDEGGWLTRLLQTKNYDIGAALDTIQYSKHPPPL
Protocol: In order to evaluate the oligomerization activity efficacy of p62 protein according to examples of the disclosure, HEK293 cell line, which is human embryonic kidney-derived cell, was collected. The cell lines were treated with Example 3 (PBA 1104), Example 4 (PBA 1105), Example 5 (Anle F105), Example 8 (PHTPP 1304), Example 11 (BTA-1 1104), Example 12 (Curcumin 1204), Example 1 (ATC 1105), Example 2 (ATC 1104), Example 10 (Resv 1105), Example 13 (Rilu 204) according to the examples, YTK-1105 compound, which is an autophagy targeting ligand compound as a comparative example, and DMSO as a control […], 2 hr, respectively.
In order to measure intracellular p62 protein activation and oligomerization in cells according to the treatment with these compounds, the respective cells were dispensed into a 100 pi dish. The cells were collected after further culturing for 24 hours so that the cells were completely attached to the surface of the plate. 100 μl of lysis buffer (20 mM Tris (pH 7.4), 150 mM NaCl, 1% Triton X-100, 2 mM NaF, 2 mM EDTA, 2 mM beta-glycerophosphate, 5 mM sodium orthovanadate, 1 mM PMSF, leupeptin, aproteinin) were injected into each sample and the cells were lysed. Based on the measured total protein concentration, each sample was treated with test compounds at room temperature for 2 hours, and then a sample buffer was added and allowed to react at 95° C. for 10 minutes. […]

[1] = SH-SY5Y and HeLa cell lines treated

degradation of target protein RIPK2 (decrease in level vs Control) (RIPK2): can be degraded
SMILES: CC(C)(C)S(=O)(=O)c1cc2c(Nc3ccc4scnc4c3)ncnc2cc1OCCNCCOCCOCCNCc1cccc(OCc2ccccc2)c1 [Example 20, N-(7-((1-(3-(benzyloxy)phenyl)-5,8-dioxa-2,11-diazatridecan-13-yl)oxy)-6-(tert-butylsulfonyl)quinazolin-4-yl)benzo[d]thiazol-5-amine]

SMILES: NC(=O)CC[C@H](NC(=O)[C@@H]1CC[C@@H]2CCN(C(=O)CCCOCCOCCOCCOCCNC[C@@H](O)COc3ccc(OCc4ccc(F)cc4)c(OCc4ccc(F)cc4)c3)C[C@H](NC(=O)c3cc4cc(C(F)(F)P(=O)(O)O)ccc4[nH]3)C(=O)N21)C(=O)NC(c1ccccc1)c1ccccc1 [Example 21, ((2-(((5S,8S,10aR)-8-(((S)-5-amino-1-(benzhydrylamino)-1,5-dioxopentan-2-yl)carbamoyl)-3-((R)-1-(3,4-bis((4-fluorobenzyl)oxy)phenoxy)-2-hydroxy-7,10,13,16-tetraoxa-4-azaicosan-20-oyl)-6-oxodecahydropyrrolo[1,2-a][1,5]diazocin-5-yl)carbamoyl)-1H-indol-5-yl)difluoromethyl)phosphonic acid]
degradation of target protein Cyclin D1 (decrease in level vs Control) (Cyclin D1): can be degraded
degradation of target protein STAT3 (decrease in level vs Control) (STAT3): can be degraded
degradation of target protein p-STAT3 (decrease in level vs Control) (p-STAT3): can be degraded

SMILES: NC(=O)CC[C@H](NC(=O)[C@@H]1CC[C@@H]2CCN(C(=O)CCCOCCOCCOCCOCCNCc3ccc(OCc4ccccc4)c(OCc4ccccc4)c3)C[C@H](NC(=O)c3cc4cc(C(F)(F)P(=O)(O)O)ccc4[nH]3)C(=O)N21)C(=O)NC(c1ccccc1)c1ccccc1 [Example 22, ((2-(((5S,8S,10aR)-8-(((S)-5-amino-1-(benzhydrylamino)-1,5-dioxopentan-2-yl)carbamoyl)-3-(1-(3,4-bis(benzyloxy)phenyl)-5,8,11,14-tetraoxa-2-azaoctadecan-18-oyl)-6-oxodecahydropyrrolo[1,2-a][1,5]diazocin-5-yl)carbamoyl)-1H-indol-5-yl)difluoromethyl)phosphonic acid]
degradation of target protein Cyclin D1 (decrease in level vs Control) (Cyclin D1): can be degraded
degradation of target protein STAT3 (decrease in level vs Control) (STAT3): can be degraded
degradation of target protein p-STAT3 (decrease in level vs Control) (p-STAT3): can be degraded

degradation of target protein Desmin Mut(L385P) (decrease in level vs Control) (Desmin Mut(L385P); [1]): can be degraded
degradation of target protein α-synuclein(A53T) (decrease in level vs Control) (α-synuclein(A53T); [1]): can be degraded
SMILES: O=C(c1cc(-c2cc3c(cc2C(=O)N2Cc4ccccc4C[C@H]2CN2CCN(CCOCCOCCOCCOCCNCc4ccc(OCc5ccccc5)c(OCCc5ccccc5)c4)CC2)OCO3)n2c1CCCC2)N(c1ccccc1)c1ccc(O)cc1 [Example 25, (S)-3-(6-(3-((4-(1-(4-(benzyloxy)-3-phenethoxyphenyl)-5,8,11,14-tetraoxa-2-azahexadecan-16-yl)piperazin-1-yl)methyl)-1,2,3,4-tetrahydroisoquinoline-2-carbonyl)benzo[d][1,3]dioxol-5-yl)-N-(4-hydroxyphenyl)-N-phenyl-5,6,7,8-tetrahydroindolizine-1-carboxamide]
degradation of target protein Tau (decrease in level vs Control) (Tau; [1]): can be degraded

degradation of target protein RIPK2 (decrease in level vs Control) (RIPK2): can be degraded
SMILES: CC(C)(C)S(=O)(=O)c1cc2c(Nc3ccc4scnc4c3)ncnc2cc1OCCNCCOCCOCCOCCOCCOCCNC[C@@H](O)COc1ccc(OCc2ccc(F)cc2)c(OCc2ccc(F)cc2)c1 [Example 26, (R)-1-((4-(benzo[d]thiazol-5-ylamino)-6-(tert-butylsulfonyl)quinazolin-7-yl)oxy)-24-(3,4-bis((4-fluorobenzyl)oxy)phenoxy)-6,9,12,15,18-pentaoxa-3,21-diazatetracosan-23-ol]

degradation of target protein Desmin Mut(L385P) (decrease in level vs Control) (Desmin Mut(L385P); [1]): can be degraded
SMILES: O=C(CCCc1ccccc1)NCCOCCOCCOCCOCCOCCNCc1ccc(OCc2ccccc2)c(OCc2ccccc2)c1 [Example 27, N-(1-(3,4-bis(benzyloxy)phenyl)-5,8,11,14,17-pentaoxa-2-azanonadecan-19-yl)-4-phenylbutanamide]
degradation of target protein Tau (decrease in level vs Control) (Tau; [1]): can be degraded

degradation of target protein Desmin Mut(L385P) (decrease in level vs Control) (Desmin Mut(L385P); [1]): can be degraded
SMILES: O=C(CCCc1ccccc1)NCCOCCOCCOCCOCCOCCOCCOCCNCc1ccc(OCc2ccccc2)c(OCc2ccccc2)c1 [Example 28, N-(1-(3,4-bis(benzyloxy)phenyl)-5,8,11,14,17,20,23-heptaoxa-2-azapentacosan-25-yl)-4-phenylbutanamide]
degradation of target protein Tau (decrease in level vs Control) (Tau; [1]): can be degraded

degradation of target protein Desmin Mut(L385P) (decrease in level vs Control) (Desmin Mut(L385P); HeLa cell line): can be degraded
SMILES: O=C(CCCc1ccccc1)NCCOCCOCCOCCNC[C@@H](O)COc1ccc(OCc2ccc(F)cc2)c(OCc2ccc(F)cc2)c1 [Example 29, (R)—N-(15-(3,4-bis((4-fluorobenzyl)oxy)phenoxy)-14-hydroxy-3,6,9-trioxa-12-azapentadecyl)-4-phenylbutanamide]

degradation of target protein α-syn. Mut(A53T) (decrease in level vs Control) (α-synuclein(A53T); SH-SY5Y cell line): can be degraded
SMILES: CN(CCOCCOCCOCCNCc1ccc(OCc2ccccc2)c(OCc2ccccc2)c1)c1ccc2nc3ccc(=[N+](C)C)cc-3sc2c1 [Example 31, N-(7-((1-(3,4-bis(benzyloxy)phenyl)-5,8,11-trioxa-2-azatridecan-13-yl) (methyl)amino)-3H-phenothiazin-3-ylidene)-N-methylmethanaminium 2,2,2-trifluoroacetate]
degradation of target protein Tau (decrease in level vs Control) (Tau; SH-SY5Y cell line): can be degraded

monomer of p62 proteins (p62 protein): decrease
p62 oligomers and high-molecular aggregates (p62 protein): increase
SMILES: OCCNCc1ccc(OCc2ccccc2)c(OCc2ccccc2)c1 [YTK-1105]
